Article PMC12676205, “New Se‐Compounds With Antileishmanial, Antitumor, and Carbonic Anhydrase Inhibitory Properties” (Archiv Der Pharmazie, 2025)

Tests used:
hCA XII = target: T1, hCA XII (Homo sapiens, UniProt O43570); test: hCA XII inhibition, stopped-flow CO2 hydration assay; format: biochemical; conditions: stopped flow technique, mean from three assays
T1 construct: made in house
Method: An Applied Photophysics stopped‐flow instrument was used to assay the CA‐catalyzed CO2 hydration activity [52]. […] The uncatalyzed rates were determined in the same manner and subtracted from the total observed rates. Stock solutions of the inhibitor (0.1 mM) were prepared in distilled–deionized water, and dilutions up to 0.01 nM were done thereafter with the assay buffer. Inhibitor and enzyme solutions were preincubated together for 15 min at room temperature before the assay, to allow for the formation of the E–I complex. The inhibition constants were obtained by Nonlinear least‐squares methods using PRISM 3 and the Cheng‐Prusoff equation as reported earlier and represent the mean from at least three different determinations. All CA isoforms were recombinant proteins obtained in‐house, as reported earlier [54, 55, 56].

[1] = tested on: NSCL (non‐small‐cell lung cancer) subpanel; test: NCI-60 one-dose screen, NSCL subpanel; format: cell-based, human; conditions: 10 µM, 48 h
Method: (§1) To explore the potential antiproliferative properties of the newly synthesized derivatives, they were submitted to the National Cancer Institute's (NCI) Developmental Therapeutics Program (DTP) for screening at 10 μM in a panel of approximately 60 human cancer cell lines from different cancer types. The results are reported as the growth percentage (GP), which is the growth of the treated cells with each compound for 48 h compared to the untreated controls (Figure 2). […] The initial screening results are summarized in Figure 2, and the mean GP values of each subpanel are depicted in Figure 3. The full reports are compiled in the Supplementary Section.
(§2) All the reported selenoesters (1–6) were submitted to the DTP of NCI. First, they were screened at a single dose (10^−5 M) against a panel of 60 cancer cell lines derived from different tumor types following the methodology available (https://dtp.cancer.gov/discovery_development/nci-60/methodology.htm). As all the compounds satisfied the threshold inhibition criteria established, they were further assessed at five concentrations (0.01, 0.1, 1, 10, and 100 µM) against the same cell panel to obtain their corresponding dose–response curves and three antitumor parameters (GI50, TGI, and LC50) by regression. GraphPad Prism 7.0 Software was used to represent the corresponding graphs.

Renal subpanel = test: NCI-60 one-dose screen, renal subpanel; format: cell-based, human; conditions: 10 µM, 48 h
Method: as §1, §2

CNS subpanel = test: NCI-60 five-dose assay, CNS subpanel; format: cell-based; conditions: Homo sapiens, 48 h; for GI50: read-out: Mean GI50 CNS; for LC50: read-out: Mean LC50 CNS
Method: (§3) All the compounds were selected for further testing since they fulfilled the set NCI one‐dose screening parameters for threshold inhibition. They were tested at five different concentrations (0.01, 0.1, 1, 10, and 100 μM) for 48 h against the same cell line panel and the dose–response curves along with three response parameters (50% growth inhibitory concentration [GI50], the 50% lethal concentration [LC50], and the total growth inhibition [TGI]) were calculated for every cancer cell line. The full reported data and corresponding graphs are compiled in Supporting Information S1. Average values of GI50, TGI, and LC50 values of all the reported selenoesters in all the subpanels are represented in Figure 4.
as §2

Prostate subpanel = test: NCI-60 five-dose assay, prostate subpanel; format: cell-based, human; conditions: 48 h; for GI50 / CC50: Homo sapiens; for GI50: read-out: Mean GI50 Prostate; for CC50: read-out: Mean LC50 Prostate
Method: as §3, §2

[2] = tested on: breast cancer cell line HS 578 T; test: NCI-60 five-dose assay, HS 578 T; format: cell-based, human; conditions: 48 h; for GI50: Homo sapiens, Hs-578T
Method: as §3, §2

[3] = tested on: A498 renal‐resistant cells; test: NCI-60 five-dose assay, A498; format: cell-based; conditions: Homo sapiens, 48 h
Method: as §3, §2

[4] = tested on: OVCAR‐5 ovarian cancer cells; test: NCI-60 five-dose assay, OVCAR-5; format: cell-based, human; conditions: 48 h
Method: as §3, §2

HOP‐62 = test: NCI-60 five-dose assay, HOP-62; format: cell-based; conditions: Homo sapiens, 48 h
Method: as §3, §2

MALME‐3M = test: NCI-60 five-dose assay, MALME-3M; format: cell-based; conditions: Homo sapiens, 48 h
Method: as §3, §2

[5] = tested on: HT29 colon cancer cell line; test: NCI-60 one-dose screen, HT29; format: cell-based, human; conditions: 10 µM, 48 h
Method: as §1, §2

THP‐1 cells = test: THP-1 cytotoxicity (MTT, PMA-differentiated macrophages); format: cell-based, human; conditions: 48 h, mean ± SD
Method: The synthesized compounds were tested for their antileishmanial activity against promastigotes of L. major and L. infantum at four concentrations (1, 10, 50, and 100 µM) for 48 h using the 3‐(4,5‐dimethylthiazol‐2‐yl)‐2,5‐diphenyltetrazolium bromide (MTT) assay. In this evaluation, the activity was expressed in IC50 (concentration inhibiting the parasite growth by 50%). […] The CC50 was defined as the concentration of selenoesters that led to a reduction in the viability of the macrophages, such that only 50% of the cells survived when compared to the control group. This cell line, derived from the blood of a human with acute monocytic leukemia, was chosen as it has been widely reported that it resembles tissue macrophages to various extents as well as supports the infection by numerous Leishmania promastigotes. The selectivity indexes (SIs) were calculated as the ratio between toxicity on macrophages (THP‐1 cells)/antileishmanial activity. The data for standard control drugs (miltefosine and paromomycin) are included for comparison purposes.
THP‐1 cells were seeded at a concentration of 8 × 10^4 cells per well in 96‐well plates and incubated with phorbol 12‐myristate 13‐acetate (PMA) (50 ng/mL) for 72 h (37°C and 5% CO2) to differentiate them into macrophages. After that, the culture medium was removed and the cells were treated with the reported selenoesters at different increasing concentrations ranging from 1 to 200 µM for 48 h at 37°C and 5% of CO2. Macrophages treated with DMSO (1%) were used as controls, and the compounds were dissolved in DMSO at a stock concentration of 10^−2 M. Afterward, the MTT assay was performed. Data were obtained from three independent experiments performed in triplicate. The absorbance was measured at 550 nm using a MultiskanEX photometric plate reader for microplates. The CC50 values were calculated using OriginPro 8.5.1. software by nonlinear curve fitting. SIs were calculated as the ratio of the CC50 values determined for the macrophages and the IC50 values obtained in each Leishmania promastigote. GraphPad Prism 7.0 Software was used to obtain the corresponding graphs.

HL‐60(TB) cells = test: NCI-60 one-dose screen, HL-60(TB); format: cell-based, human; conditions: 10 µM, 48 h
Method: as §1, §2

T1 sequence (O43570 25-354): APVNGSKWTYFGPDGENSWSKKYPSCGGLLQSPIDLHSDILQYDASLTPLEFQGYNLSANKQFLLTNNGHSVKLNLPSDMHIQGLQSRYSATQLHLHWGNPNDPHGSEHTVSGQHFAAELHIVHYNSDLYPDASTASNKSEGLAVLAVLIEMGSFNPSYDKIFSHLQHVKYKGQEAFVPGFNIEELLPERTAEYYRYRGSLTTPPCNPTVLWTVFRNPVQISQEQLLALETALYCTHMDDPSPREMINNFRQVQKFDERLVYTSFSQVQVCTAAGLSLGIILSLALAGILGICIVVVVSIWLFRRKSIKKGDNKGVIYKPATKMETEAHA

In the case of `N#Cc1ccc(NC(=O)C[Se]C(=O)c2ccccc2)cc1C(F)(F)F` [Compound 1, Se‐(2‐((4‐cyano‐3‐(trifluoromethyl)phenyl)amino)‐2‐oxoethyl)benzoselenoate], the Ki (hCA XII) is reported as 51.1 µM, the “average growth cell value, NSCL” value [1] is reported as -96.68% and the “average growth cell value, Renal” value (Renal subpanel) is reported as -95.41%. The GI50 (CNS subpanel) was 1.37 µM, the LC50 (CNS subpanel) was 5.64 µM and the GI50 (Prostate subpanel) was 1.54 µM. It also gave a CC50 (Prostate subpanel) of 5.91 µM, a GI50 [2] of 0.64 µM and a GI50 [3] of 0.89 µM.
For `O=C(C[Se]C(=O)c1ccco1)Nc1ccc([N+](=O)[O-])c(C(F)(F)F)c1` [Compound 5, Se‐(2‐((4‐nitro‐3‐(trifluoromethyl)phenyl)amino)‐2‐oxoethyl)furan‐2‐carboselenoate], the Ki (hCA XII) was 72.6 µM, the “average growth cell value, NSCL” value [1] was -42.46% and the “average growth cell value, Renal” value (Renal subpanel) was -39.51%. The GI50 (CNS subpanel) was 2.04 µM, the GI50 (Prostate subpanel) was 1.85 µM and the CC50 (Prostate subpanel) was 54.4 µM. For the same compound, the “cytotoxicity against OVCAR‐5” value [4] was “remarkable cytotoxicity”.
`O=C(C[Se]C(=O)c1ccccc1)Nc1ccc([N+](=O)[O-])c(C(F)(F)F)c1` [Compound 2, Se‐(2‐((4‐nitro‐3‐(trifluoromethyl)phenyl)amino)‐2‐oxoethyl)benzoselenoate] was tested, and the Ki (hCA XII) was 91.5 µM, the “average growth cell value, NSCL” value [1] was -96.34% and the “average growth cell value, Renal” value (Renal subpanel) was -96.22%. It also gave a GI50 (CNS subpanel) of 1.17 µM, an LC50 (CNS subpanel) of 5.17 µM and a GI50 (Prostate subpanel) of 1.44 µM. For the same compound, the CC50 (Prostate subpanel) was 5.66 µM, the “TGI HS 578 T” value [2] was 0.89 µM and the GI50 [2] was 0.28 µM. For the same compound, the GI50 [3] was 0.8 µM, the GI50 (HOP‐62) was 0.86 µM and the GI50 (MALME‐3M) was 0.83 µM.
With `O=C(C[Se]C(=O)c1ccccc1)Nc1cccc(OC(F)(F)F)c1` [Compound 3, Se‐(2‐oxo‐2‐((3‐(trifluoromethoxy)phenyl)amino)ethyl)benzoselenoate] the Ki (hCA XII) was 17.4 µM, the “average growth cell value, NSCL” value [1] was -57.44% and the “average growth cell value, Renal” value (Renal subpanel) was -61.17%. For the same compound, the “behaviour in HT29” value [5] was “potent cytotoxic activity”, the GI50 (CNS subpanel) was 2.07 µM and the LC50 (CNS subpanel) was 9 µM. It also gave a GI50 (Prostate subpanel) of 2.16 µM, a CC50 (Prostate subpanel) of 12.6 µM and a CC50 (THP‐1 cells) of over 200 µM.
`O=C(C[Se]C(=O)c1ccco1)Nc1cccc(OC(F)(F)F)c1` [Compound 6, Se‐(2‐oxo‐2‐((3‐(trifluoromethoxy)phenyl)amino)ethyl)furan‐2‐carboselenoate] was tested, and the Ki (hCA XII) was 9.6 µM, the “average growth cell value, NSCL” value [1] was -12.41% and the “average growth cell value, Renal” value (Renal subpanel) was -17.86%. For the same compound, the “behaviour in HL‐60(TB)” value (HL‐60(TB) cells) was “cytotoxic behavior”, the GI50 (CNS subpanel) was 3.08 µM and the GI50 (Prostate subpanel) was 5.38 µM. The CC50 (Prostate subpanel) was 100 µM and the “cytotoxic activity (LC50) in the prostate cancer subpanel” value (Prostate subpanel; five-dose) was “devoid of activity”.
